The source of these data is PubChem BioAssay (NCI).

A word on the GI50: it is the concentration giving 50% growth inhibition. Broadly, the TGI is the concentration at which net growth stops.

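A five-concentration, 48-hour dose response in 96-well plates underlies each endpoint, interpolated linearly between surrounding concentrations. Here, GI50 denotes the concentration required for 50% inhibition of growth. TGI denotes the concentration required for complete inhibition of growth.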

Some test systems named below: ACHN renal; HCC-2998 colon; HCT-15 colon; M14 melanoma; OVCAR-3 ovarian; OVCAR-8 ovarian; SK-MEL-28 melanoma; TK-10 renal.
Common to all, as to assay: DTP human tumour cell line panel, 48 h

Take `Nc1nc(SCc2ccccc2CCl)c2[nH]cnc2n1`: the GI50 in the assay on ACHN renal is 18.6 µM; with HCC-2998 colon, 18.8 µM; in the assay with HCT-15 colon, 14.5 µM; with M14 melanoma, 17.8 µM; in the assay with OVCAR-3 ovarian, 14.6 µM; with OVCAR-8 ovarian, 28.2 µM. The GI50 with SK-MEL-28 melanoma is 17.7 µM. Also, the TGI was 74.6 µM in the assay with ACHN renal; 33.3 µM with HCC-2998 colon; 31.1 µM with HCT-15 colon; 52.8 µM with M14 melanoma; 28.9 µM in the assay with OVCAR-3 ovarian; more than 100 µM in the assay on OVCAR-8 ovarian. For the same compound, the TGI with SK-MEL-28 melanoma worked out at 49.7 µM.

As to `CN1CCCCC1CCN1c2ccccc2Sc2ccc(Br)cc21` (centres undefined), the GI50 with ACHN renal is 3.54 µM; in the assay on HCC-2998 colon, 1.97 µM; in the assay with HCT-15 colon it was 3.17 µM; with M14 melanoma it was 1.83 µM; in the assay on OVCAR-3 ovarian, 3.36 µM; in the assay on OVCAR-8 ovarian, 2.11 µM. The GI50 with SK-MEL-28 melanoma was 2.04 µM; with TK-10 renal, 1.99 µM. Moreover, the concentration for total growth inhibition (TGI) was found to be 11.9 µM in the assay with ACHN renal; 4.11 µM with HCC-2998 colon; 10.2 µM with HCT-15 colon; 3.34 µM with M14 melanoma; 11.7 µM with OVCAR-3 ovarian; 4.47 µM in the assay with OVCAR-8 ovarian. The TGI in the assay with SK-MEL-28 melanoma stood at 4.37 µM; in the assay with TK-10 renal, 5.14 µM.

With `CC[C@H](C)[C@H](NC(=O)[C@H]1CCCCN1C)C(=O)N(C)[C@H](CCc1nc(C(=O)N[C@@H](Cc2ccccc2)C[C@H](C)C(=O)O)cs1)C(C)C`, the GI50 with ACHN renal was 1.37 µM; with HCC-2998 colon, 0.632 µM; with HCT-15 colon it was 1.34 µM; in the assay with OVCAR-3 ovarian, 0.0371 µM; in the assay on OVCAR-8 ovarian it was 0.61 µM; in the assay on SK-MEL-28 melanoma it was more than 25 µM. For the same compound, the GI50 with TK-10 renal is more than 14.9 µM. In addition, the TGI in the assay with ACHN renal was more than 25 µM; in the assay on HCC-2998 colon, more than 25 µM; in the assay with HCT-15 colon, more than 25 µM; in the assay on OVCAR-3 ovarian, 0.181 µM; in the assay with OVCAR-8 ovarian it was more than 25 µM; in the assay with SK-MEL-28 melanoma, more than 25 µM. The same compound registered a TGI in the assay on TK-10 renal of more than 25 µM.

`N=C(N)c1ccc2oc3ccc(C(=N)N)cc3c(=O)c2c1`: the concentration for total growth inhibition (TGI) in the assay on ACHN renal, in the assay on HCC-2998 colon, with HCT-15 colon, in the assay with M14 melanoma, with OVCAR-3 ovarian and in the assay with OVCAR-8 ovarian was more than 100 µM in each case. Moreover, the TGI in the assay with SK-MEL-28 melanoma and with TK-10 renal was more than 100 µM throughout.

For the compound `Nc1ccc(CC[C@H]2CCC/C=C/[C@@H]3C[C@H](O)C[C@H]3[C@H](O)/C=C/C(=O)O2)cc1`, the GI50 in the assay on ACHN renal is 0.0413 µM; in the assay with HCC-2998 colon it was 0.0266 µM; in the assay on HCT-15 colon it was 0.0455 µM; in the assay on M14 melanoma it was 0.0337 µM; with OVCAR-3 ovarian, 0.0282 µM; in the assay on OVCAR-8 ovarian, 0.0407 µM. The GI50 in the assay on SK-MEL-28 melanoma is 0.0244 µM; with TK-10 renal, 0.0382 µM. Further, the TGI is more than 100 µM in the assay on ACHN renal; 16.7 µM in the assay on HCT-15 colon; 10.7 µM in the assay on M14 melanoma; 0.0769 µM in the assay with OVCAR-3 ovarian; more than 100 µM in the assay on OVCAR-8 ovarian; 1.43 µM in the assay on SK-MEL-28 melanoma. The same compound gave a total growth inhibition concentration (TGI) in the assay on TK-10 renal of 0.831 µM.

Turning to `COc1cc2c(c(OC)c1OC)-c1cc(I)c(O)cc1[C@@H](NC(C)=O)CC2`, the GI50 in the assay on ACHN renal is 0.383 µM; in the assay with HCC-2998 colon, 0.0655 µM; in the assay on HCT-15 colon, 0.118 µM; in the assay on M14 melanoma, 0.0311 µM; in the assay with OVCAR-3 ovarian, 0.0258 µM; in the assay with OVCAR-8 ovarian, 0.187 µM. The GI50 in the assay on SK-MEL-28 melanoma was 0.999 µM; with TK-10 renal, more than 44.6 µM. The TGI in the assay on ACHN renal is more than 100 µM; in the assay with HCC-2998 colon, 3 µM; with HCT-15 colon, more than 100 µM; in the assay with M14 melanoma, 0.0969 µM; with OVCAR-3 ovarian it was 0.0623 µM; in the assay on OVCAR-8 ovarian, more than 100 µM. In addition, the TGI in the assay with SK-MEL-28 melanoma and in the assay with TK-10 renal was more than 100 µM each time.

For `CC(C)(Oc1ccc(-c2cccc3ccccc23)cc1)C(=O)O`, the TGI with ACHN renal, in the assay on HCC-2998 colon, with HCT-15 colon, in the assay with M14 melanoma, with OVCAR-3 ovarian and in the assay with OVCAR-8 ovarian was more than 100 µM in each case. The total growth inhibition concentration (TGI) with SK-MEL-28 melanoma and in the assay with TK-10 renal was more than 100 µM each time.

In the case of `O=C(Nc1ccn(C2CC(O)C(COC(c3ccccc3)(c3ccccc3)c3ccccc3)O2)c(=O)n1)c1ccccc1` (centres undefined), the total growth inhibition concentration (TGI) with ACHN renal was found to be 9.31 µM; with HCC-2998 colon, 21.6 µM; in the assay with HCT-15 colon, 6.4 µM; in the assay with M14 melanoma, 4.57 µM; in the assay with OVCAR-3 ovarian, 3.52 µM; with OVCAR-8 ovarian, 3.71 µM. In addition, the TGI in the assay on SK-MEL-28 melanoma was 12.1 µM.

Take `COc1cccc(C2CC(=O)Nc3c2c(C)nn3-c2nc3ccccc3[nH]2)c1OC` (centres undefined): the GI50 in the assay on ACHN renal was 3.98 µM; in the assay with HCC-2998 colon it was 18.1 µM; in the assay with HCT-15 colon, 3.45 µM; in the assay on M14 melanoma, 4.45 µM; with OVCAR-3 ovarian, 4.55 µM; in the assay with OVCAR-8 ovarian, 4.41 µM. In addition, the results for the GI50 in the assay on SK-MEL-28 melanoma and with TK-10 renal were 9.71 µM and 6.8 µM, respectively. The TGI in the assay with ACHN renal is more than 90.9 µM; in the assay with HCC-2998 colon it was more than 79.8 µM; in the assay on HCT-15 colon, 26.8 µM; in the assay on M14 melanoma, 30.3 µM; in the assay with OVCAR-3 ovarian, 19.8 µM; in the assay on OVCAR-8 ovarian it was more than 100 µM. The TGI in the assay on SK-MEL-28 melanoma is more than 87 µM; with TK-10 renal, more than 100 µM.

In the case of `Cc1cc(N2CCC(N3CCCC3)CC2)nc(/N=C(\N)Nc2ccc(Cl)c(Cl)c2)n1`, the GI50 was 1.71 µM in the assay on ACHN renal; 1.54 µM with HCC-2998 colon; 1.64 µM in the assay with HCT-15 colon; 1.81 µM in the assay on M14 melanoma; 1.72 µM with OVCAR-3 ovarian; 1.91 µM in the assay with OVCAR-8 ovarian. Besides, the GI50 with SK-MEL-28 melanoma is 1.91 µM; in the assay on TK-10 renal it was 1.93 µM. The TGI with ACHN renal came to 3.22 µM; in the assay on HCC-2998 colon, 3.17 µM; with HCT-15 colon, 3.64 µM; with M14 melanoma it was 3.67 µM; in the assay with OVCAR-3 ovarian, 3.26 µM; in the assay with OVCAR-8 ovarian, 3.77 µM. The TGI in the assay on SK-MEL-28 melanoma is 3.41 µM; in the assay with TK-10 renal, 3.72 µM.

On to `CCc1ccc2c(c1)C(=O)c1c-2n(CCCN)c(=O)c2cc(OC)c(OC)cc12`, for which the GI50 was 1.68 µM with ACHN renal; 1.63 µM in the assay with HCC-2998 colon; 1.59 µM with HCT-15 colon; 1.8 µM in the assay with M14 melanoma; 1.51 µM with OVCAR-3 ovarian; 1.77 µM with SK-MEL-28 melanoma. For the same compound, the GI50 in the assay with TK-10 renal was 1.74 µM. Also, the TGI with ACHN renal stood at 3.07 µM; with HCC-2998 colon, 3.05 µM; in the assay with HCT-15 colon, 3.01 µM; in the assay with M14 melanoma it was 3.37 µM; in the assay with OVCAR-3 ovarian it was 2.89 µM; with SK-MEL-28 melanoma it was 3.19 µM. In addition, the concentration for total growth inhibition (TGI) in the assay on TK-10 renal was found to be 3.28 µM.
